Measurements: article PMC13335808 (Advanced Science, 2026)

Target: LRRK2 G2019S (Homo sapiens, UniProt Q5S007, G2019S)
Assay: ADP-Glo Kinase Assay, LRRK2 G2019S
Format: biochemical
Settings: 120 min kinase reaction at 25 °C, 10 concentrations, read-out: IC50 (LRRK2 G2019S_ADP-Glo Assay)
Procedure: Kinase inhibition assays were performed using the ADP-Glo^TM Kinase Assay (Promega) in 384-well format. A 2× ATP/substrate solution and a 2× kinase solution was prepared in kinase reaction buffer. Compounds were dispensed into the assay plates (100 nL per well) using an Echo 655 acoustic dispenser. Subsequently, 5 μL of the 2× kinase solutions were added to each well, followed by centrifugation at 1000 rpm for 1 min and incubation at 25 °C for 10 min. The kinase reactions were initiated by the addition of 5 μL of the 2× ATP/substrate solution.
Following the kinase reaction, 5 μL of ADP-Glo reagent was added to each well. Plates were centrifuged at 1000 rpm for 1 min and incubated at 25 °C for 60 min to terminate the reaction and deplete unconsumed ATP. […] Luminescence signals were recorded using a BMG plate reader.
The percentage inhibition (inhibition%) was calculated as: […]
IC50 values were determined by nonlinear regression of the inhibition% versus the logarithm of compound concentrations using a four-parameter sigmoidal dose–response model (variable slope) in GraphPad Prism 10.0. […]
Ten different concentrations were tested for each compound. […] Residual kinase activity was determined based on luminescence readouts, and the data were normalized to vehicle (100% activity) and complete inhibition controls (0% activity). […]

Sequence of LRRK2 G2019S (Q5S007 whole entry G2019S): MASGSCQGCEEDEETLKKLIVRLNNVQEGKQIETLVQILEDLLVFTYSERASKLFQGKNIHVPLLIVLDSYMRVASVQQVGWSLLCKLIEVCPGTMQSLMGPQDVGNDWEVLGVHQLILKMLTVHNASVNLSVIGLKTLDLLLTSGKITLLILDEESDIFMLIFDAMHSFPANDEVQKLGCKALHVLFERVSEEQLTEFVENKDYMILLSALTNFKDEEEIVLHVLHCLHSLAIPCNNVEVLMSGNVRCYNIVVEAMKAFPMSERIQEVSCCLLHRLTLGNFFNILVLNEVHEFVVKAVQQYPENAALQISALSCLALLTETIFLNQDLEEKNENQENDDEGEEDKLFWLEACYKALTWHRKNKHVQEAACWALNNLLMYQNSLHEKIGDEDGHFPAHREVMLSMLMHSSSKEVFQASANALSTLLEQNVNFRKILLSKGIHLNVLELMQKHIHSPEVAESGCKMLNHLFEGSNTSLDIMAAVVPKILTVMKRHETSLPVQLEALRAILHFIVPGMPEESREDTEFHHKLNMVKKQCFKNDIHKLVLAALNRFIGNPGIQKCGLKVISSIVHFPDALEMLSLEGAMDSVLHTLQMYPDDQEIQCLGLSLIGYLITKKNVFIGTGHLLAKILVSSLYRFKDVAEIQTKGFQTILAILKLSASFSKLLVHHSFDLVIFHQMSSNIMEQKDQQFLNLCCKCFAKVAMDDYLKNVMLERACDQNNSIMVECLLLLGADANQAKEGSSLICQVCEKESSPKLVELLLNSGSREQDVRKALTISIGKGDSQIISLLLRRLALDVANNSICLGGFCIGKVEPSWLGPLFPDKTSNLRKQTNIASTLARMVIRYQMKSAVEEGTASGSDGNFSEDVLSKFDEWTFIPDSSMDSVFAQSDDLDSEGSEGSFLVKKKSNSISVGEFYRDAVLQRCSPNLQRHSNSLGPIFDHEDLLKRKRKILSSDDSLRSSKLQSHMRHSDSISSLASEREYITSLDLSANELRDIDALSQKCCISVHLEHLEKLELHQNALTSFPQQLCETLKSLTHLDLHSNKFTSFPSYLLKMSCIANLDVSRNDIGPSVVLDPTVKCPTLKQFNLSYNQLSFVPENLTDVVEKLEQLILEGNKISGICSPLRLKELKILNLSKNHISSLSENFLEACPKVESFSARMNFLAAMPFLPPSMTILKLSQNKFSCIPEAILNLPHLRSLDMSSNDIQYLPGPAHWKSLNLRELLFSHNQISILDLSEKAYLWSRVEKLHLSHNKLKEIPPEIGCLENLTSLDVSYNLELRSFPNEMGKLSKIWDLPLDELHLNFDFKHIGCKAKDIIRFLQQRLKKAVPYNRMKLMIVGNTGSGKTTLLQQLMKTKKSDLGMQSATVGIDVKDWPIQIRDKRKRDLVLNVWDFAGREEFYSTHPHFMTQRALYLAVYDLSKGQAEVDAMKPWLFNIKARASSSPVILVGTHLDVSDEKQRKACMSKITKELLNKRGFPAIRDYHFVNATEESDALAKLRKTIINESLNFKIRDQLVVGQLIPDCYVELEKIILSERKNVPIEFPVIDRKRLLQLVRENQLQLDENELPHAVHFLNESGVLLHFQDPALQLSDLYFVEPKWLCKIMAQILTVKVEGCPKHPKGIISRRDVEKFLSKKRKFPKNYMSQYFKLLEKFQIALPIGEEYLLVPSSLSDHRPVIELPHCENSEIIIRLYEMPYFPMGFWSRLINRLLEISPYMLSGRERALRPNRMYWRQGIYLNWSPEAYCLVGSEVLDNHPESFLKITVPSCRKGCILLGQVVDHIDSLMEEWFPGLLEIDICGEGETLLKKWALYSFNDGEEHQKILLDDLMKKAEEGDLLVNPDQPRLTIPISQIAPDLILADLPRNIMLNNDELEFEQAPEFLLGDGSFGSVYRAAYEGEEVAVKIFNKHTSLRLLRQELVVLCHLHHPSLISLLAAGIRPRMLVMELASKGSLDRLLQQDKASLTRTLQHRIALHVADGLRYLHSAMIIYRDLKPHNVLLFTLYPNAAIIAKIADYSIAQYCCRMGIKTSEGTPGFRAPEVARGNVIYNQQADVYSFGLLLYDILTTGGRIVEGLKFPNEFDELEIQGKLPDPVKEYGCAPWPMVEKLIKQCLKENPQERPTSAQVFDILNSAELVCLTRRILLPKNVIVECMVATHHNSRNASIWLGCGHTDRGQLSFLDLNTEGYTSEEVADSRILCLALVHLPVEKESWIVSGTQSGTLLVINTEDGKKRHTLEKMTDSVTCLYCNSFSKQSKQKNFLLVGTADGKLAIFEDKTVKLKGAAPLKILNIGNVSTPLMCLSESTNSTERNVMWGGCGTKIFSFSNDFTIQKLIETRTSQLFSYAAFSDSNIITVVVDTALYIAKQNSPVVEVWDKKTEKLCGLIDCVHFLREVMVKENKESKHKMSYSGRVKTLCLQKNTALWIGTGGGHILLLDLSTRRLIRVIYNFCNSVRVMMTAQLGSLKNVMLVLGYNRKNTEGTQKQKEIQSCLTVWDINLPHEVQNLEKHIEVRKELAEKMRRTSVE

For `COc1cc(C(=O)N2CCC(N3CCN(C)CC3)CC2)ccc1Nc1ncc2c(n1)N(C)c1ccccc1C(=O)N2C` [LRRK2-IN-1], the IC50 was 5.25 nM.
